Assay results published in ChEMBL document CHEMBL1201862, “PubChem BioAssay data set” (2004).
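Tested at 5 concentrations; 48 h exposure; 96-well plates; endpoints linearly interpolated, else capped at highest concentration. GI50: concentration for 50% inhibition of growth.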 The source made the active and inactive calls. Rule as the data show it: active = GI50 up to about 1.1 µM and inactive = higher.

How the values were obtained:
Experiment in all cases: inhibition of tumour cell growth, NCI panel, 48 h
A498 = test system: A498
CCRF-CEM = test system: CCRF-CEM
HT-29 = test system: HT-29
KM12 = test system: KM12
MDA-MB-231 = test system: MDA-MB-231
MDA-MB-435 = test system: MDA-MB-435
MOLT-4 = test system: MOLT-4
Malme-3M = test system: Malme-3M
NCI-H522 = test system: NCI-H522
RPMI-8226 = test system: RPMI-8226
SK-MEL-2 = test system: SK-MEL-2
SK-MEL-5 = test system: SK-MEL-5
SK-OV-3 = test system: SK-OV-3
U-251 = test system: U-251
A549 = test system: A549
K562 = test system: K562
LOX IMVI = test system: LOX IMVI
MCF7 = test system: MCF7
SF-268 = test system: SF-268
SF-539 = test system: SF-539

| SMILES | GI50 (A498) | GI50 (CCRF-CEM) | GI50 (HT-29) | GI50 (KM12) | GI50 (MDA-MB-231) | GI50 (MDA-MB-435) | GI50 (MOLT-4) | GI50 (Malme-3M) | GI50 (NCI-H522) | GI50 (RPMI-8226) | GI50 (SK-MEL-2) | GI50 (SK-MEL-5) | GI50 (SK-OV-3) | GI50 (U-251) | GI50 (A549) | GI50 (K562) | GI50 (LOX IMVI) | GI50 (MCF7) | GI50 (SF-268) | GI50 (SF-539) |
| --- | --- | --- | --- | --- | --- | --- | --- | --- | --- | --- | --- | --- | --- | --- | --- | --- | --- | --- | --- | --- |
| O=C1c2ccccc2C(=O)N1CC(CN1C(=O)c2ccccc2C1=O)(C(=O)OCc1ccccc1)C(=O)OCc1ccccc1 | > 100 µM (inactive) | 6.11 µM (inactive) | > 100 µM (inactive) | > 100 µM (inactive) | > 100 µM (inactive) | > 100 µM (inactive) | 7.36 µM (inactive) | > 100 µM (inactive) | > 100 µM (inactive) | > 100 µM (inactive) | > 100 µM (inactive) | > 100 µM (inactive) | > 100 µM (inactive) | > 100 µM (inactive) | – | – | – | – | – | – |
| S=C(Nc1cccc(Cl)c1)Nc1ccccn1 | – | > 100 µM (inactive) | > 100 µM (inactive) | 13.5 µM (inactive) | – | > 100 µM (inactive) | > 100 µM (inactive) | 27.6 µM (inactive) | – | > 100 µM (inactive) | > 100 µM (inactive) | > 100 µM (inactive) | > 100 µM (inactive) | > 100 µM (inactive) | > 100 µM (inactive) | > 100 µM (inactive) | > 100 µM (inactive) | > 100 µM (inactive) | > 100 µM (inactive) | > 100 µM (inactive) |
| C=CCN1CCC(O)(c2cc(C(=O)OCC)[nH]c2-c2cc(C)no2)C1 (stereo not given) | > 100 µM (inactive) | > 100 µM (inactive) | > 100 µM (inactive) | > 100 µM (inactive) | > 100 µM (inactive) | > 100 µM (inactive) | > 100 µM (inactive) | > 100 µM (inactive) | > 100 µM (inactive) | > 100 µM (inactive) | > 100 µM (inactive) | > 100 µM (inactive) | > 100 µM (inactive) | > 100 µM (inactive) | > 100 µM (inactive) | > 100 µM (inactive) | > 100 µM (inactive) | – | > 100 µM (inactive) | > 100 µM (inactive) |
| CN(C)CCN(C)C(=O)C1CCCN1C(=O)OCc1ccccc1 (stereo not given) | > 100 µM (inactive) | 19.4 µM (inactive) | > 100 µM (inactive) | – | – | – | > 100 µM (inactive) | > 100 µM (inactive) | 6.71 µM (inactive) | > 100 µM (inactive) | > 100 µM (inactive) | > 100 µM (inactive) | > 100 µM (inactive) | > 100 µM (inactive) | > 100 µM (inactive) | 61.1 µM (inactive) | > 100 µM (inactive) | – | > 100 µM (inactive) | > 100 µM (inactive) |
| COc1ccc(-c2nc3ccccc3s2)cc1OC | – | 76.9 µM (inactive) | 31.6 µM (inactive) | 30.2 µM (inactive) | 19.7 µM (inactive) | > 100 µM (inactive) | > 100 µM (inactive) | – | – | 22.7 µM (inactive) | > 100 µM (inactive) | 10.5 µM (inactive) | 15.5 µM (inactive) | 53.8 µM (inactive) | 51.6 µM (inactive) | > 100 µM (inactive) | 27.1 µM (inactive) | – | – | 54.6 µM (inactive) |
| O=CN/C=C\c1cc(O)ccc1O | 74.8 µM (inactive) | 5.11 µM (inactive) | 16.9 µM (inactive) | > 22.5 µM (inactive) | – | – | 18.2 µM (inactive) | 13.8 µM (inactive) | 4.99 µM (inactive) | 13.6 µM (inactive) | > 48.9 µM (inactive) | 7.59 µM (inactive) | > 100 µM (inactive) | 32 µM (inactive) | > 100 µM (inactive) | 13.3 µM (inactive) | 7.23 µM (inactive) | – | 22.5 µM (inactive) | 10.7 µM (inactive) |
| COc1cc(S(=O)(=O)Nc2ccc(-c3csc(N4C(=O)C(Cl)C4c4cccs4)n3)cc2)ccc1Cl (stereo not given) | > 100 µM (inactive) | 4.1 µM (inactive) | > 100 µM (inactive) | 49.2 µM (inactive) | – | 72.9 µM (inactive) | 11.4 µM (inactive) | > 100 µM (inactive) | 4.35 µM (inactive) | 26.9 µM (inactive) | > 100 µM (inactive) | 93.8 µM (inactive) | > 100 µM (inactive) | – | > 100 µM (inactive) | 31.8 µM (inactive) | 2.43 µM (inactive) | 29.5 µM (inactive) | 39 µM (inactive) | 32.8 µM (inactive) |
| CC(C)C1=Cc2ccc3c(c2C(=O)C1=O)CCCC3(C)C [MILTIRONE] | 17.4 µM (inactive) | 1.17 µM (inactive) | 20.1 µM (inactive) | 16.1 µM (inactive) | – | – | 2.19 µM (inactive) | 4.74 µM (inactive) | 1.79 µM (inactive) | 2.12 µM (inactive) | 17 µM (inactive) | 12.3 µM (inactive) | 18.1 µM (inactive) | 14.2 µM (inactive) | 18.3 µM (inactive) | 2.67 µM (inactive) | 12.2 µM (inactive) | – | 6.9 µM (inactive) | 5.33 µM (inactive) |
| N#CC12Cc3cc4c(cc3-c3cccc(c31)CCN2C(=O)c1ccccc1)OCO4 (stereo not given) | 53.3 µM (inactive) | > 100 µM (inactive) | > 100 µM (inactive) | > 100 µM (inactive) | – | – | > 100 µM (inactive) | > 100 µM (inactive) | > 10 µM (inactive) | > 100 µM (inactive) | > 100 µM (inactive) | > 100 µM (inactive) | > 100 µM (inactive) | > 100 µM (inactive) | > 100 µM (inactive) | > 100 µM (inactive) | > 100 µM (inactive) | – | > 100 µM (inactive) | > 100 µM (inactive) |
| CCCCCCCCCCC[N+]1(Cc2ccccc2)CC2CCN(Cc3ccccc3)CC2C1 (stereo not given) | 1.5 µM (inactive) | 0.261 µM (active) | 0.377 µM (active) | 0.247 µM (active) | – | – | 0.199 µM (active) | 0.342 µM (active) | 0.106 µM (active) | 0.101 µM (active) | 0.261 µM (active) | 0.173 µM (active) | 1.75 µM (inactive) | 0.261 µM (active) | 1.2 µM (inactive) | 0.125 µM (active) | 0.382 µM (active) | 0.447 µM (active) | 0.555 µM (active) | 1.15 µM (inactive) |
| O=C/C(=C(/Cl)c1ccc(O)cc1)c1ccccc1 | 50.5 µM (inactive) | 15.2 µM (inactive) | 27.1 µM (inactive) | 35.6 µM (inactive) | – | – | 16.6 µM (inactive) | 23.7 µM (inactive) | 13.3 µM (inactive) | 17.2 µM (inactive) | 32.7 µM (inactive) | 23 µM (inactive) | 26.5 µM (inactive) | 24 µM (inactive) | 32.1 µM (inactive) | 45.3 µM (inactive) | 21.6 µM (inactive) | – | 25 µM (inactive) | 28.6 µM (inactive) |
| COc1cc(C2c3cccc4cccc(c34)C3CCC(=O)N32)cc(OC)c1O (stereo not given) | > 50 µM (inactive) | > 50 µM (inactive) | > 50 µM (inactive) | > 50 µM (inactive) | – | > 50 µM (inactive) | > 50 µM (inactive) | – | – | > 50 µM (inactive) | > 50 µM (inactive) | – | > 50 µM (inactive) | > 50 µM (inactive) | 42.7 µM (inactive) | > 50 µM (inactive) | – | > 50 µM (inactive) | – | > 50 µM (inactive) |
| Cc1ccccc1C1=[N+]([O-])c2ccccc2C1=O | 83.8 µM (inactive) | 18.5 µM (inactive) | 14.5 µM (inactive) | 13.2 µM (inactive) | – | – | 19 µM (inactive) | 18.4 µM (inactive) | 15.2 µM (inactive) | 39.2 µM (inactive) | 3.22 µM (inactive) | 16.8 µM (inactive) | > 100 µM (inactive) | 16.9 µM (inactive) | > 10 µM (inactive) | 20.9 µM (inactive) | 18.7 µM (inactive) | – | 20.5 µM (inactive) | 19.1 µM (inactive) |
| CCOC(=O)C1=C(Nc2cccc3ccccc23)OC/C1=N\NC(=O)c1ccccc1O | 19.5 µM (inactive) | 4.86 µM (inactive) | 29.7 µM (inactive) | 25.3 µM (inactive) | – | – | 12.6 µM (inactive) | 28.9 µM (inactive) | 7.64 µM (inactive) | 16.7 µM (inactive) | 29.8 µM (inactive) | 12.9 µM (inactive) | 26 µM (inactive) | 23.7 µM (inactive) | 16.4 µM (inactive) | 10.1 µM (inactive) | 14.3 µM (inactive) | – | 13.4 µM (inactive) | 10.6 µM (inactive) |
| CC1[C@@]2(CCC(C)(C)O2)O[C@@H]2C=C3C4CCC5Cc6nc7c(nc6C[C@@]5(C)C4C[C@H](O)[C@@]3(C)[C@]12O)CC1CCC2C3=C[C@H]4O[C@@]5(O[C@@](C)(CO)C[C@@H]5O)C(C)[C@@]4(O)[C@]3(C)[C@@H](O)CC2[C@]1(C)C7 (stereo not given in full) | 0.0313 µM (active) | 0.0199 µM (active) | 0.109 µM (active) | 0.109 µM (active) | – | – | 0.0217 µM (active) | 0.175 µM (active) | 0.00902 µM (active) | 0.00653 µM (active) | 0.0783 µM (active) | 0.0951 µM (active) | 0.0863 µM (active) | 0.0266 µM (active) | 0.0953 µM (active) | 0.055 µM (active) | 0.0526 µM (active) | 0.00959 µM (active) | 0.05 µM (active) | 0.00847 µM (active) |
| C[N+]1(C)CCCC(C#N)(c2ccccc2)CC1 (stereo not given) | > 100 µM (inactive) | > 100 µM (inactive) | > 100 µM (inactive) | > 100 µM (inactive) | – | – | > 100 µM (inactive) | > 100 µM (inactive) | – | > 100 µM (inactive) | – | > 100 µM (inactive) | > 100 µM (inactive) | > 100 µM (inactive) | > 100 µM (inactive) | > 100 µM (inactive) | – | > 100 µM (inactive) | > 100 µM (inactive) | – |
